According to patent US10174015B2, “Substituted heterocyclic derivative, preparation method and use thereof” (Xiamen University, priority 2014, dated 2019):
Like-named read-outs stand apart in the source and are kept apart here.

Legend:
[1] = system: headache caused by nitroglycerin; test: Nitroglycerin-induced headache rat model; type: in vivo, Wistar rats; details: rats, 10 mg/kg i.p. 1 h before nitroglycerin (FIG. 5)
Method: In the Experimental example, compounds to be evaluated or compounds to be tested or test compounds used are the Compounds 1-46 prepared in the Examples according to the invention. In the Experimental example, all the agents for injection, including compounds to be evaluated or compounds to be tested or test compounds, and positive control drug, were dissolved in a mixed solvent of PEG400:Tween 80:normal saline (at a volume ratio of 5:5:90), at a concentration of 5 mg/mL.
Nitroglycerin-induced headache rat model was a common model for studying inflammatory pain medically. The model was used in the invention to evaluate the therapeutic effects of the compounds on headache. The model can represent mixed pain including, but not only limited to: migraine, cluster headache, tension headache syndrome, prosopodynia, lumbodynia, shoulder pain, burning mouth syndrome, and complex regional pain syndrome.
Experimental Wistar rats with a body weight of about 250 g for each (purchased from Shanghai SLAC Laboratory Animal Co., Ltd) were in an experimental environment with free access to food and water for 1 week. The rats were fasted for 24 h before administration. The compound to be evaluated (10 mg/kg) was intraperitoneally injected to the rat at 1 h before the administration of nitroglycerin, wherein the positive control drug was indomethacin and the blank control was normal saline. Nitroglycerin (10 mg/kg, nitroglycerin dissolved in normal saline, at a concentration of 5%) was injected at epidermis of the rat neck, and the rats were then placed in the observation cage. A video camera was used to record the behavior of the rats in the following 60 min. Pain-related behavior was analyzed statistically based on the times that the rat scratched its head in said period.

[2] = Stability assay in rat plasma; type: in vitro ADME; details: 37° C.
Method: To each of several tubes sub-packaged with rat plasma, PBS solution was added in a volume equal to a quarter of plasma volume, and the resultant mixture was mixed well. […] At different time points (0, 10, 30, 60, 120, 240, 360, 720, 1440 min), 50 μL plasma sample was taken and added to 150 μL precooled methanol (containing the internal standard compound E8, with a structure of
[drawing 117] and a name of 1-(2-Biphenyl-4-yl)ethyl-carbonyl pyrrolidine, 1 nmol/sample), wherein three parallel samples were prepared for each time point. The samples were then vertically mixed well, and centrifuged at 4° C., 12000 g for 10 min. The supernatant was transferred to a sample vial. LC-MS/MS was used to measure the peak area at different time points, Analyst® version 1.4.1. software was used to analyze chromatographic peak, and the content of the target compound was calculated by virtue of the standard curve.

[3] = Stability assays at acidic and basic conditions; type: physicochemical
Method: The sample containing the compound to be tested was then incubated in a constant temperature shaker at 37° C. At different time points (0 min, 10 min, 30 min, 1 h, 2 h, 4 h, 6 h, 12 h, 24 h), 50 μL sample was taken and added to 150 μL precooled methanol (containing the internal standard E8, 1 nmol/sample), wherein three parallel samples were prepared for each time point. The samples were then vertically mixed well, and transferred to a sample vial. LC-MS/MS was used to measure the peak area at different time points, Analyst® version 1.4.1. software was used to analyze chromatographic peak, and the content of the target compound was calculated based on the standard curve.

RAW264.7 cells = test: Assay on cytotoxicity (CCK8); type: cell-based; details: RAW264.7 cells, 3, 10, 30, 100 μM, 24 h and 48 h; compound 9 except at 100 μM
Method: RAW264.7 cells in good growing state (purchased from American Type Culture Collection, ATCC, Beijing), at a density of about 80%-90%, were scraped off with a cell scraper to prepare a cell suspension. After counting, the cells were accurately seeded in a 96-well plate, at 100 μL per well, wherein the total number of cells retained the same, at about 20000 cells/well, and the same amount of culture medium (which was DMEM (Gibco, Shanghai) medium containing 10% fetal bovine serum (PAA), 1% penicillin-streptomycin (PAA)) was added. The 96-well plate was placed in an incubator to preincubate for 24 h (37° C., 5% CO2). The marginal wells of the plate were filled with an equal amount of PBS, but were not seeded with cells, so as to prevent evaporation of the culture medium in the experimental group. […] After incubating the plate in the incubator for a period of time (24 or 48 h), 10 μL CCK8 solution was added to each well, and then the plate was incubated in incubator for 1.5 h. the absorbance OD value was determined at 450 nm by microplate reader, and the OD value was proportional to the number of living cells. […]

hERG potassium channel = hERG potassium channel (Homo sapiens (Human), UniProt Q12809); test: hERG potassium channel automated patch clamp in CHO-hERG cells
Method: CHO-hERG cells (purchased from ATCC) were incubated in a culture flask. When the cell density reached 60˜80%, the culture medium (Glutamax DMEM/F12 medium (Gibco, Shanghai) containing 10% fetal bovine serum) was removed. The cells were washed with 7 mL PBS once, and then digested by adding 3 mL Detachin cell dissociation buffer. After complete digestion, the resultant mixture was neutralized by adding 7 mL culture medium, and centrifuged. The supernatant was removed with a pipette, 5 mL culture medium was added to re-suspend the cells to ensure a cell density of 2˜5×10^6/mL.
Intracellular fluid and extracellular fluid were prepared as described in the following table.
A certain amount of compound was dissolved in […] at the following concentrations, to prepare the stock solution of compound. 2 μL stock solution of compound was added to 998 μL extracellular fluid, and was subjected to 5-fold serial dilution in extracellular fluid containing 0.2% DMSO to get the final concentrates to be tested.
Single cell giga-seal and formation of whole-cell mode were automatically performed by Sophion Qpatch HT fully automated cell patch clamp systems. After obtaining the whole-cell recording mode, the cell was clamped at −80 mV. The cell first underwent pre-voltage of −50 mV for 50 msec, then underwent depolarization stimulation at 20 mV for 5 sec, and then underwent repolarization at −50 mV for 5 sec, and then the voltage return to −80 mv. The cell underwent the stimulation at the voltage every 15 sec, and the data were recorded for 2 min, then extracellular fluid was administered, and then the data were recorded for 2 min. Then, the administration process begun. The concentration of a test compound started from the lowest concentration, each test concentration was administered for 2 min. […] At least three cells were tested for each concentration (n≥3). The experimental data was analyzed by XLFit software.

[4] = PBS pH 5.0, 37° C., read-out: Half-life pH 5.0
[5] = PBS pH 7.4, 37° C., read-out: Half-life pH 7.4

Sequence of hERG potassium channel (Q12809 whole entry): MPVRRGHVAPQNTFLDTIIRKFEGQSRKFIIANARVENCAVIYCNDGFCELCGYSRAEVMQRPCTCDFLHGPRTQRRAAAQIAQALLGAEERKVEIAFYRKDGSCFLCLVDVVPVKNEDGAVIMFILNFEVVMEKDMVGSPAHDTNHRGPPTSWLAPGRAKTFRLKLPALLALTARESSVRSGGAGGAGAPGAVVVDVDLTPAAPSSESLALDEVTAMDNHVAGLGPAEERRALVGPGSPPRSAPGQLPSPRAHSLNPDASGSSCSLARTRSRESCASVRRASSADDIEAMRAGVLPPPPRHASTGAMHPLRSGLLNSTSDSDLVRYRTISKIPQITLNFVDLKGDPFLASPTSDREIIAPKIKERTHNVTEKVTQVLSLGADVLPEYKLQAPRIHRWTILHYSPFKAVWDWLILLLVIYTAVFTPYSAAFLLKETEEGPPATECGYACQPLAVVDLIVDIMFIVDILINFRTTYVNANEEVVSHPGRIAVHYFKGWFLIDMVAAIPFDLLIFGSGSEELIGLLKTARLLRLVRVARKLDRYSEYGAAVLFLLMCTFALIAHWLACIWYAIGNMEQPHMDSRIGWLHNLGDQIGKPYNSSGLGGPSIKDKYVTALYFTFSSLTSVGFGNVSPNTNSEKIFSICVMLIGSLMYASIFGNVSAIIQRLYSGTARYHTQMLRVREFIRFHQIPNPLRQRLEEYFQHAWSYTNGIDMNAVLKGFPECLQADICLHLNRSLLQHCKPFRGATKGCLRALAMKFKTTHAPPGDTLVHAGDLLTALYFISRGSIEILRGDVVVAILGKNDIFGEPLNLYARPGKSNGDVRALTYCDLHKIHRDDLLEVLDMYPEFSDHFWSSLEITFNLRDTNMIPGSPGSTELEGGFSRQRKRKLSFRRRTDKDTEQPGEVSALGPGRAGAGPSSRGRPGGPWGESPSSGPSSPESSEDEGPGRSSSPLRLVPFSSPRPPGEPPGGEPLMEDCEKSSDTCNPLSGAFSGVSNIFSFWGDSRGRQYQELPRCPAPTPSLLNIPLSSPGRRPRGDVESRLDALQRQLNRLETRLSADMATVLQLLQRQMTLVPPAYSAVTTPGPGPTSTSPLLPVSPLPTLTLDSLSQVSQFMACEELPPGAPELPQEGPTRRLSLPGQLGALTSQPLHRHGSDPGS

Structure (SMILES)	effect of inhibiting nitroglycerin-induced headache [1]	half-life at 2 μM [2] [h]	half-life at 1 μM [3, 4] [h]	half-life at 1 μM [3, 5] [h]	effect on cell viability (RAW264.7 cells)	IC50 (hERG potassium channel) [µM]
O=C(CCCCCc1cccc(Cl)c1)N1CCOC1=O [Compound 9, 3-Chlorophenylhexanoyl Oxazolidinone]	significant effects of inhibiting nitroglycerin-induced headache in rats	2.72	> 24	> 24	no effect on cell viability	> 40
O=C(CCCCCc1ccccc1)N1CCOC1=O [Compound 2, Phenylhexanoyl Oxazolidinone]	significant effects of inhibiting nitroglycerin-induced headache in rats	3.13	> 24	> 24	no effect on cell viability	> 40
